Measurements published in US20070128217A1 (priority 2003, published 2007).

Tests used:
[1] = system: antibodies in sera from SARS patients (sera 1a, 1b, 2, 6, 37, 62, London, SARS-yellow, SARS-green); format: binding, human; parameters: Binding of serum 6 to linear peptides of protein X1 of SARS-CoV Urbani / Binding of serum 37 to linear peptides of protein X1 of SARS-CoV Urbani / Binding of serum 6 to looped/cyclic peptide (PEPSCAN-ELISA) / Binding of serum 37 to looped/cyclic peptide (PEPSCAN-ELISA) / Binding of serum 37 to looped/cyclic peptides of protein X1 of SARS-CoV Urbani / Binding of serum 6 to linear peptides of protein X2 / Binding of serum 37 to linear peptides of protein X2 / Binding of serum 37 to looped/cyclic peptides of protein X2 of SARS-CoV Urbani / Binding of serum 6 to linear peptides of protein M of SARS-CoV Urbani / Binding of serum 37 to linear peptides of protein M of SARS-CoV Urbani / Binding of serum 6 to looped/cyclic peptides of protein M of SARS-CoV Urbani / Binding of serum 37 to looped/cyclic peptides of protein M of SARS-CoV Urbani / Binding of serum 6 to linear peptides of protein X3 of SARS-CoV Urbani / Binding of serum 37 to linear peptides of protein X3 of SARS-CoV Urbani / Binding of serum 37 to looped/cyclic peptides of protein X3 of SARS-CoV Urbani / Binding of serum 6 to linear peptides of protein X4 of SARS-CoV Urbani / Binding of serum 37 to linear peptides of protein X4 of SARS-CoV Urbani / Binding of serum 37 to looped/cyclic peptides of protein X4 of SARS-CoV Urbani / Binding of serum 6 to linear peptides of protein X5 of SARS-CoV Urbani / Binding of serum 37 to linear peptides of protein X5 of SARS-CoV Urbani / Binding of serum 37 to looped/cyclic peptides of protein X5 of SARS-CoV Urbani / Binding of serum 6 to linear peptides of protein N of SARS-CoV Urbani / Binding of serum 37 to linear peptides of protein N of SARS-CoV Urbani / Binding of serum 6 to linear peptide (PEPSCAN-ELISA) / Binding of serum 1a to looped/cyclic peptides of protein N of SARS-CoV Urbani / Binding of serum 1b to looped/cyclic peptides of protein N of SARS-CoV Urbani / Binding of serum 2 to looped/cyclic peptides of protein N of SARS-CoV Urbani / Binding of serum 6 to looped/cyclic peptides of protein N of SARS-CoV Urbani / Binding of serum 37 to looped/cyclic peptides of protein N of SARS-CoV Urbani / Binding of serum 62 to looped/cyclic peptides of protein N of SARS-CoV Urbani / Binding of serum London to looped/cyclic peptides of protein N of SARS-CoV Urbani / Binding of serum SARS-green to looped/cyclic peptides of protein N of SARS-CoV Urbani: unit not given here
[2] = system: control sera (pooled serum of ten healthy LUMC hospital workers; commercial negative donor pooled serum from the Dutch bloodbank); format: binding, human; parameters: Binding of Control serum LUMC to linear peptides / Binding of Control serum Blood-bank to linear peptides / Binding of Control serum LUMC to looped peptides / Binding of Control Serum Blood-Bank to Looped peptides / Binding of Control serum LUMC to linear peptides of the protein M of SARS-CoV Urbani / Binding of Control serum Blood-bank to linear peptides of the protein M of SARS-CoV Urbani / Binding of Control serum LUMC to looped peptides of the protein M of SARS-CoV Urbani / Binding of Control Serum Blood-Bank to Looped peptides of the protein M of SARS-CoV Urbani: unit not given here
[3] = system: rabbit serum obtained by immunizing a rabbit with the SARS-CoV strain Frankfurt 1; format: binding; parameters: Binding of a rabbit serum to linear peptides / Binding of a rabbit serum to looped peptides / Rabbit serum linear peptides / Rabbit serum looped peptides / Binding of a rabbit serum to linear peptides of protein N of SARS-CoV Urbani (Rabbit serum linear peptides) / Binding of a rabbit serum to looped/cyclic peptides of protein N of SARS-CoV Urbani (Rabbit serum looped peptides): unit not given here
[4] = system: recombinant human anti-SARS-CoV antibody 03-018; format: binding; parameters: Binding of antibody 03-018 to linear peptides of the N protein of SARS-CoV Urbani / Binding of antibody 03-018 to looped/cyclic peptides of the N protein of SARS-CoV Urbani: unit not given here

| Sequence | Binding of serum 1a to linear peptides of protein N of SARS-CoV Urbani [1] | Binding of serum 1a to looped/cyclic peptides of protein N of SARS-CoV Urbani [1] | Binding of serum 1b to linear peptides of protein N of SARS-CoV Urbani [1] | Binding of serum 1b to looped/cyclic peptides of protein N of SARS-CoV Urbani [1] | Binding of serum 2 to linear peptides of protein N of SARS-CoV Urbani [1] | Binding of serum 2 to looped/cyclic peptides of protein N of SARS-CoV Urbani [1] | Binding of serum 6 to linear peptides of protein N of SARS-CoV Urbani [1] | Binding of serum 6 to looped/cyclic peptides of protein N of SARS-CoV Urbani [1] | Binding of serum 37 to linear peptides of protein N of SARS-CoV Urbani [1] | Binding of serum 37 to looped/cyclic peptides of protein N of SARS-CoV Urbani [1] | Binding of serum 62 to linear peptides of protein N of SARS-CoV Urbani [1] | Binding of serum 62 to looped/cyclic peptides of protein N of SARS-CoV Urbani [1] | Binding of serum London to linear peptides of protein N of SARS-CoV Urbani [1] | Binding of serum London to looped/cyclic peptides of protein N of SARS-CoV Urbani [1] | Binding of serum SARS-green to linear peptides of protein N of SARS-CoV Urbani [1] | Binding of serum SARS-green to looped/cyclic peptides of protein N of SARS-CoV Urbani [1] | Binding of serum SARS-yellow to linear peptides of protein N of SARS-CoV Urbani [1] | Binding of serum SARS-yellow to looped/cyclic peptides of protein N of SARS-CoV Urbani [1] | Binding of a rabbit serum to linear peptides of protein N of SARS-CoV Urbani (Rabbit serum linear peptides) [3] | Binding of a rabbit serum to looped/cyclic peptides of protein N of SARS-CoV Urbani (Rabbit serum looped peptides) [3] | also measured |
| --- | --- | --- | --- | --- | --- | --- | --- | --- | --- | --- | --- | --- | --- | --- | --- | --- | --- | --- | --- | --- | --- |
| AQPLPQRQKKQPTVT | 0.3 | 0.2 | 0.2 | 0.1 | 0.4 | 0.2 | 0.4 | 0.1 | 0.7 | 0.3 | 0.8 | 0.2 | 1.6 | 0.2 | 0.3 | 0.3 | 1.4 | 0.2 | 0.2 | 0.2 | Control Serum Blood-Bank Looped peptides [2]: 0.4; Control serum Blood-bank linear peptides [2]: 0.6; Control serum LUMC linear peptides [2]: 0.7; Control serum LUMC looped peptides [2]: 0.3; Binding of antibody 03-018 to linear peptides of the N protein of SARS-CoV Urbani [4]: 0.1; Binding of antibody 03-018 to looped/cyclic peptides of the N protein of SARS-CoV Urbani [4]: 0.1 |
| ARPKQRRPQGLPNNT | 0.2 | 0.2 | 0.1 | 0.1 | 0.3 | 0.4 | 0.2 | 0.2 | 0.7 | 0.5 | 0.6 | 0.5 | 0.5 | 0.3 | 0.5 | 0.2 | 0.5 | 0.2 | 0.2 | 0.4 | Binding of Control Serum Blood-Bank to Looped peptides [2]: 0.6; Binding of Control serum Blood-bank to linear peptides [2]: 0.6; Binding of Control serum LUMC to linear peptides [2]: 0.6; Binding of Control serum LUMC to looped peptides [2]: 0.5; Binding of antibody 03-018 to linear peptides of the N protein of SARS-CoV Urbani [4]: 0.1; Binding of antibody 03-018 to looped/cyclic peptides of the N protein of SARS-CoV Urbani [4]: 0.2 |
